Test results: paper PMC11844072, “Novel 5,6-dichlorobenzimidazole derivatives as dual BRAFWT and BRAFV600E inhibitors: design, synthesis, anti-cancer activity and molecular dynamics simulations” (BMC Chemistry, 2025)

Key:
Experiment in all cases: NCI 60 single concentration growth inhibition
Assay type in all cases: cell-based, human
SK-MEL-5 = settings: SK-MEL-5, Melanoma; for inhibition at 10 µM: Homo sapiens, read-out: GI%; for GI%: 10 μM
Method in brief: (§1)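 One-concentration growth inhibition used 10 µM over 48 h in RPMI 1640/5% FBS, with sulforhodamine B protein staining as the end point. Percent growth is expressed relative to untreated control cells.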

SR = settings: Leukemia; for inhibition at 10 µM: Homo sapiens, read-out: GI%
Method in brief: (§2)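 Single-dose screen at 10 µM across the NCI-60 panel, then five concentrations (10-fold or ½ log dilutions) for selected compounds. Cells in RPMI 1640, 5% FBS, 2 mM L-glutamine, preincubated 24 h, then drug exposure 48 h at 37 °C. TCA fixation, SRB stain read at 515 nm; percent growth calculated against time-zero and untreated controls.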

PC-3 = settings: PC-3, Prostate cancer; for inhibition at 10 µM: Homo sapiens, read-out: GI%; for GI%: 10 μM
Method in brief: as §1

MDA-MB-468 = settings: MDA-MB-468, Breast cancer; for inhibition at 10 µM: Homo sapiens, read-out: GI%; for GI%: 10 μM
Method in brief: as §1

SK-MEL-2 = settings: SK-MEL-2, Melanoma; for inhibition at 10 µM: Homo sapiens, read-out: GI%; for GI%: 10 μM
Method in brief: as §1

SF-295 = settings: SF-295, CNS cancer; for inhibition at 10 µM: Homo sapiens, read-out: GI%; for GI%: 10 μM
Method in brief: as §1

A549/ATCC = settings: Non-small cell lung cancer; for inhibition at 10 µM: Homo sapiens, read-out: GI%; for GI%: 10 μM
Method in brief: as §1

RXF 393 = settings: RXF 393, Renal cancer; for inhibition at 10 µM: Homo sapiens, read-out: GI%; for GI%: 10 μM
Method in brief: as §1

M14 = settings: M14, Melanoma; for inhibition at 10 µM: Homo sapiens, read-out: GI%; for GI%: 10 μM
Method in brief: as §1

NCI-H226 = settings: NCI-H226, Non-small cell lung cancer; for inhibition at 10 µM: Homo sapiens, read-out: GI%; for GI%: 10 μM
Method in brief: as §1

MDA-MB-435 = settings: MDA-MB-435, Melanoma; for inhibition at 10 µM: Homo sapiens, read-out: GI%; for GI%: 10 μM
Method in brief: as §1

KM12 = settings: KM12, Colon cancer; for inhibition at 10 µM: Homo sapiens, read-out: GI%; for GI%: 10 μM
Method in brief: as §1

RPMI-8226 = settings: RPMI-8226, Leukemia; for inhibition at 10 µM: Homo sapiens, read-out: GI%; for GI%: 10 μM
Method in brief: as §1

SF-268 = settings: SF-268, CNS cancer; for inhibition at 10 µM: Homo sapiens, read-out: GI%; for GI%: 10 μM
Method in brief: as §1

MOLT-4 = settings: MOLT-4, Leukemia; for inhibition at 10 µM: Homo sapiens, read-out: GI%; for GI%: 10 μM
Method in brief: as §2

SK-OV-3 = settings: SK-OV-3, Ovarian cancer; for inhibition at 10 µM: Homo sapiens, read-out: GI%; for GI%: 10 μM
Method in brief: as §1

## COc1ccc(-c2nc3cc(Cl)c(Cl)cc3n2CC(=O)NN=Cc2cccc(OCC(=O)O)c2)cc1 [Compound 10e, 2-(3-((2-(2-(5,6-Dichloro-2-(4-methoxyphenyl)-1H-benzo[d]imidazol-1-yl)acetyl)hydrazono)methyl)phenoxy)acetic acid]
SK-MEL-5
  inhibition at 10 µM: < 5%
SR
  inhibition at 10 µM: < 5%
PC-3
  inhibition at 10 µM: < 5%
MDA-MB-468
  inhibition at 10 µM: < 5%
SK-MEL-2
  inhibition at 10 µM: < 5%
SF-295
  inhibition at 10 µM: < 5%
A549/ATCC
  inhibition at 10 µM: < 5%
RXF 393
  inhibition at 10 µM: < 5%
M14
  inhibition at 10 µM: 6.12%
NCI-H226
  inhibition at 10 µM: < 5%
MDA-MB-435
  inhibition at 10 µM: < 5%
KM12
  inhibition at 10 µM: < 5%
RPMI-8226
  inhibition at 10 µM: < 5%
SF-268
  inhibition at 10 µM: < 5%
MOLT-4
  inhibition at 10 µM: < 5%
SK-OV-3
  inhibition at 10 µM: < 5%

## 2-(5-((2-(2-(5,6-Dichloro-2-(4-methoxyphenyl)-1H-benzo[d]imidazol-1-yl)acetyl)hydrazono)methyl)-2-methoxyphenoxy)acetic acid [Compound 10n]
SK-MEL-5
  GI%: – (GI% < 5%)
SR; 10 μM
  GI%: 9.65%
PC-3
  GI%: 10.81%
MDA-MB-468
  GI%: 12.44%
SK-MEL-2
  GI%: – (GI% < 5%)
SF-295
  GI%: – (GI% < 5%)
A549/ATCC
  GI%: – (GI% < 5%)
RXF 393
  GI%: – (GI% < 5%)
M14
  GI%: – (GI% < 5%)
NCI-H226
  GI%: 10.07%
MDA-MB-435
  GI%: – (GI% < 5%)
KM12
  GI%: – (GI% < 5%)
RPMI-8226
  GI%: – (GI% < 5%)
SF-268
  GI%: – (GI% < 5%)
MOLT-4
  GI%: 10.12%
SK-OV-3
  GI%: – (GI% < 5%)

## 3-(4-((2-(2-(5,6-Dichloro-2-(4-methoxyphenyl)-1H-benzo[d]imidazol-1-yl)acetyl)hydrazono)methyl)phenoxy)propanoic acid [Compound 10i]
SK-MEL-5
  GI%: 14.39%
PC-3
  GI%: 19.27%
MDA-MB-468
  GI%: 10.83%
SK-MEL-2
  GI%: – (GI% < 5%)
SF-295
  GI%: 15.06%
A549/ATCC
  GI%: – (GI% < 5%)
RXF 393
  GI%: – (GI% < 5%)
M14
  GI%: – (GI% < 5%)
NCI-H226
  GI%: 23.02%
MDA-MB-435
  GI%: 7.59%
KM12
  GI%: – (GI% < 5%)
RPMI-8226
  GI%: – (GI% < 5%)
SF-268
  GI%: – (GI% < 5%)
MOLT-4
  GI%: – (GI% < 5%)
SK-OV-3
  GI%: 6.27%

## COc1ccc(-c2nc3cc(Cl)c(Cl)cc3n2CC(=O)NN=Cc2cccc(O)c2)cc1 [Compound 10a, 2-(5,6-Dichloro-2-(4-methoxyphenyl)-1H-benzo[d]imidazol-1-yl)-N'-(3-hydroxybenzylidene)acetohydrazide]
SK-MEL-5
  inhibition at 10 µM: 79.7%
SR
  inhibition at 10 µM: 42%
PC-3
  inhibition at 10 µM: 57.8%
MDA-MB-468
  inhibition at 10 µM: 82.1%
SK-MEL-2
  inhibition at 10 µM: 33.6%
SF-295
  inhibition at 10 µM: 67.8%
A549/ATCC
  inhibition at 10 µM: 62.5%
RXF 393
  inhibition at 10 µM: 44.4%
M14
  inhibition at 10 µM: 41.1%
NCI-H226
  inhibition at 10 µM: 43.7%
MDA-MB-435
  inhibition at 10 µM: 45.9%
KM12
  inhibition at 10 µM: 41%
RPMI-8226
  inhibition at 10 µM: 67.4%
SF-268
  inhibition at 10 µM: 51.5%
MOLT-4
  inhibition at 10 µM: 70.4%
SK-OV-3
  inhibition at 10 µM: 35.5%

## COC(=O)COc1ccc(C=NNC(=O)Cn2c(-c3ccc(OC)cc3)nc3cc(Cl)c(Cl)cc32)cc1 [Compound 10h, Methyl-2-(4-((2-(2-(5,6-dichloro-2-(4-methoxyphenyl)-1H-benzo[d]imidazol-1-yl)acetyl)hydrazono)methyl)phenoxy)acetate]
SK-MEL-5
  inhibition at 10 µM: < 5%
SR
  inhibition at 10 µM: 81.1%
PC-3
  inhibition at 10 µM: 74.4%
MDA-MB-468
  inhibition at 10 µM: 177%
SK-MEL-2
  inhibition at 10 µM: 26.4%
SF-295
  inhibition at 10 µM: < 5%
A549/ATCC
  inhibition at 10 µM: < 5%
RXF 393
  inhibition at 10 µM: 85.7%
M14
  inhibition at 10 µM: 10.8%
NCI-H226
  inhibition at 10 µM: < 5%
MDA-MB-435
  inhibition at 10 µM: 18.3%
KM12
  inhibition at 10 µM: < 5%
RPMI-8226
  inhibition at 10 µM: < 5%
SF-268
  inhibition at 10 µM: < 5%
MOLT-4
  inhibition at 10 µM: 53.2%
SK-OV-3
  inhibition at 10 µM: < 5%

## CCOC(=O)C(C)Oc1ccc(C=NNC(=O)Cn2c(-c3ccc(OC)cc3)nc3cc(Cl)c(Cl)cc32)cc1 (stereo not shown) [Compound 10j, Ethyl-2-(4-((2-(2-(5,6-dichloro-2-(4-methoxyphenyl)-1H-benzo[d]imidazol-1-yl)acetyl) hydrazono)methyl)phenoxy)propanoate]
SK-MEL-5
  inhibition at 10 µM: 25.2%
PC-3
  inhibition at 10 µM: 38.5%
MDA-MB-468
  inhibition at 10 µM: 43.9%
SK-MEL-2
  inhibition at 10 µM: 8.36%
SF-295
  inhibition at 10 µM: 21%
A549/ATCC
  inhibition at 10 µM: < 5%
RXF 393
  inhibition at 10 µM: 43.7%
M14
  inhibition at 10 µM: 9.09%
NCI-H226
  inhibition at 10 µM: 7.33%
MDA-MB-435
  inhibition at 10 µM: 24.8%
KM12
  inhibition at 10 µM: < 5%
RPMI-8226
  inhibition at 10 µM: 40.2%
SF-268
  inhibition at 10 µM: 14.3%
MOLT-4
  inhibition at 10 µM: 53.2%
SK-OV-3
  inhibition at 10 µM: 5.5%

## COc1ccc(-c2nc3cc(Cl)c(Cl)cc3n2CC(=O)NN=Cc2ccc(OCC(=O)O)cc2)cc1 [Compound 10f, 2-(4-((2-(2-(5,6-Dichloro-2-(4-methoxyphenyl)-1H-benzo[d]imidazol-1-yl)acetyl)hydrazono)methyl)phenoxy)acetic acid]
SK-MEL-5
  inhibition at 10 µM: < 5%
SR
  inhibition at 10 µM: < 5%
PC-3
  inhibition at 10 µM: 8.65%
MDA-MB-468
  inhibition at 10 µM: 6.38%
SK-MEL-2
  inhibition at 10 µM: < 5%
SF-295
  inhibition at 10 µM: < 5%
A549/ATCC
  inhibition at 10 µM: < 5%
RXF 393
  inhibition at 10 µM: < 5%
M14
  inhibition at 10 µM: < 5%
NCI-H226
  inhibition at 10 µM: < 5%
MDA-MB-435
  inhibition at 10 µM: < 5%
KM12
  inhibition at 10 µM: < 5%
RPMI-8226
  inhibition at 10 µM: < 5%
SF-268
  inhibition at 10 µM: < 5%
MOLT-4
  inhibition at 10 µM: < 5%
SK-OV-3
  inhibition at 10 µM: < 5%

## COc1ccc(-c2nc3cc(Cl)c(Cl)cc3n2CC(=O)NN=Cc2ccc(O)cc2)cc1 [Compound 10b, 2-(5,6-Dichloro-2-(4-methoxyphenyl)-1H-benzo[d]imidazol-1-yl)-N'-(4-hydroxybenzylidene)acetohydrazide]
SK-MEL-5
  inhibition at 10 µM: 52.1%
SR
  inhibition at 10 µM: 64.7%
PC-3
  inhibition at 10 µM: 40.7%
MDA-MB-468
  inhibition at 10 µM: 90.1%
SK-MEL-2
  inhibition at 10 µM: 32.3%
SF-295
  inhibition at 10 µM: 34%
A549/ATCC
  inhibition at 10 µM: 57.2%
RXF 393
  inhibition at 10 µM: 41.2%
M14
  inhibition at 10 µM: 39.1%
NCI-H226
  inhibition at 10 µM: 35.5%
MDA-MB-435
  inhibition at 10 µM: 39.1%
KM12
  inhibition at 10 µM: 26.3%
RPMI-8226
  inhibition at 10 µM: 62.1%
SF-268
  inhibition at 10 µM: 52.5%
MOLT-4
  inhibition at 10 µM: 77.2%
SK-OV-3
  inhibition at 10 µM: 24.6%

## COc1ccc(-c2nc3cc(Cl)c(Cl)cc3n2CC(=O)NN=Cc2ccc(O)c(OC)c2)cc1 [Compound 10l, 2-(5,6-Dichloro-2-(4-methoxyphenyl)-1H-benzo[d]imidazol-1-yl)-N'-(4-hydroxy-3-methoxybenzylidene)acetohydrazide]
SK-MEL-5
  inhibition at 10 µM: 57.9%
SR
  inhibition at 10 µM: 49.1%
PC-3
  inhibition at 10 µM: 54.2%
MDA-MB-468
  inhibition at 10 µM: 99%
SK-MEL-2
  inhibition at 10 µM: 18.6%
SF-295
  inhibition at 10 µM: 38.1%
A549/ATCC
  inhibition at 10 µM: 35.4%
RXF 393
  inhibition at 10 µM: 32.2%
M14
  inhibition at 10 µM: 33%
NCI-H226
  inhibition at 10 µM: 47.5%
MDA-MB-435
  inhibition at 10 µM: 42.2%
KM12
  inhibition at 10 µM: 25.4%
RPMI-8226
  inhibition at 10 µM: 48.3%
SF-268
  inhibition at 10 µM: 53.7%
MOLT-4
  inhibition at 10 µM: 70.8%
SK-OV-3
  inhibition at 10 µM: 6.44%
